In the NIST ThermoML archive (doi:10.1021/acs.jced.8b00958):

Assay: mn = molality of the nth substance listed, in mol/kg
Details: 85 kPa, Liquid; for viscosity: Falling or rolling sphere viscometry; for speed of sound: Frequency=3 MHz, Single path-length method; for mass density: Vibrating tube method

O=C(CO)[C@@H](O)[C@H](O)[C@H](O)CO [D-fructose] + O
Details	mass density [kg/m3]	speed of sound [m/s]	viscosity [mPa·s]
288.15 K, m1 = 0.0498	1002.61	–	1.163
288.15 K, m1 = 0.1521	–	–	1.224
288.15 K, m1 = 0.2488	1016.24	1484.3	1.274
288.15 K, m1 = 0.3494	1022.9	1491.6	1.335
288.15 K, m1 = 0.4476	1029.24	1498.6	1.394
288.15 K, m1 = 0.5483	1035.58	–	1.465
288.15 K, m1 = 0.6491	1041.8	1512.6	1.529
298.15 K, m1 = 0.0498	1000.49	–	–
298.15 K, m1 = 0.1521	–	1506.7	0.964
298.15 K, m1 = 0.2488	1013.83	1513.1	0.993
298.15 K, m1 = 0.3494	1020.36	1519.4	1.038
298.15 K, m1 = 0.4476	1026.59	1525.6	1.08
298.15 K, m1 = 0.5483	1032.83	1532	1.133
298.15 K, m1 = 0.6491	1038.95	1538.4	1.178
308.15 K, m1 = 0.0498	997.41	–	–
308.15 K, m1 = 0.1521	1004.25	1528.8	0.774
308.15 K, m1 = 0.2488	–	1534.4	0.804
308.15 K, m1 = 0.3494	1016.98	1540.3	0.836
308.15 K, m1 = 0.4476	1023.1	1546	0.87
308.15 K, m1 = 0.5483	1029.27	1551.3	0.909
308.15 K, m1 = 0.6491	1035.3	1556.9	0.941
318.15 K, m1 = 0.0498	993.54	–	0.624
318.15 K, m1 = 0.1521	1000.27	–	0.648
318.15 K, m1 = 0.2488	–	1549.8	0.67
318.15 K, m1 = 0.3494	1012.8	1555	0.699
318.15 K, m1 = 0.4476	1018.84	1559.9	0.718
318.15 K, m1 = 0.5483	1024.89	1565.3	0.747
318.15 K, m1 = 0.6491	1030.8	1570.3	0.777
